According to US10472341B2, “Bicyclic tetrahydrothiazepine derivatives useful for the treatment of neoplastic and/or infectious diseases” (APEIRON BIOLOGICS AG, priority 2015, dated 2019):
Counter-ions that a name gives are not always drawn. Like-named read-outs stand apart in the source and are kept apart here.

Test system: aCD3/aCD28-stimulated human PBMCs
Experiment: Cytokine production in aCD3/aCD28 stimulated human PBMCs
Format: cell-based
Conditions: PBMC, 18 h
Protocol: In order to determine the immune modulatory effect of compounds of compounds of the present invention in human PBMCs, compounds were assessed in the following assay set-up:
Buffy coats were obtained from a local hospital, diluted 3 fold with PBS and layered onto an isotonic Ficoll separating solution d=1.077 g/mL in 50 mL centrifuge tubes. The tubes were centrifuged at 914 g for 25 min at room temperature with the brakes off. The PBMC layer was removed and washed twice with ice-cold PBS. Erythrocytes were lysed by addition of ddH2O and cells were resuspended in X-Vivo15 (Lonza).
1e6 cells/mL were stimulated with soluble anti CD3/CD28 antibodies (1 μg/mL both, clones OKT3 and 28.2) in the presence of described compounds. Cells were incubated for 18 h at 37° C., 5% CO2. Assay plates were centrifuged at 400 g for 5 min and supernatants harvested. Cytokine concentration in tissue culture supernatants were determined with MSD or HTRF kits (MSD and Cisbio), according to manufacturer's instructions.

[1] = enhancement of IFN-γ production, read-out: Activity Class IFN-γ
[2] = enhancement of IL-2 production, read-out: Activity Class IL-2

Which results are given for N[C@H]1CS(=O)(=O)c2ccc(C(=O)NCCCC(F)(F)F)cc2N(Cc2ccccc2)C1=O [Example 162, (3R)-3-amino-5-benzyl-1,1,4-trioxo-N-(4,4,4-trifluorobutyl)-2,3,4,5-tetrahydro-1λ^6,5-benzothiazepine-7-carboxamide]?
EC50 [1]: > 5.01 µM; EC50 [2]: > 5.01 µM

Which EC50 [1] does the source give for COCCNC(=O)c1ccc2c(c1)N(Cc1ccc(Cl)cc1)C(=O)[C@@H](N)CS2 [Example 20, (3R)-3-amino-5-[(4-chlorophenyl)methyl]-N-(2-methoxyethyl)-4-oxo-2,3,4,5-tetrahydro-1,5-benzothiazepine-7-carboxamide hydrochloride] here?
Its EC50 is 1.58 to 5.01 µM.

What about the EC50 [2] of the same molecule?
The EC50 was > 5.01 µM.

How did the EC50 [1] turn out when COCCNC(=O)c1cc2c(cc1F)S(=O)(=O)C[C@H](N)C(=O)N2Cc1ccc(Cl)cc1 [Example 120, (3R)-3-amino-5-[(4-chlorophenyl)methyl]-8-fluoro-N-(2-methoxyethyl)-1,1,4-trioxo-2,3,4,5-tetrahydro-1λ^6,5-benzothiazepine-7-carboxamide hydrochloride] was run?
The EC50 was > 5.01 µM.

And the EC50 [2]?
The EC50 was > 5.01 µM.

Which EC50 [1] does the source give for COCCOCCNC(=O)c1cc2c(cc1F)S(=O)(=O)C[C@H](N)C(=O)N2Cc1ccc(Cl)cc1 [Example 172, (3R)-3-amino-5-[(4-chlorophenyl)methyl]-8-fluoro-N-[2-(2-methoxyethoxy)ethyl]-1,1,4-trioxo-2,3,4,5-tetrahydro-1λ^6,5-benzothiazepine-7-carboxamide] here?
Its EC50 is 1.58 to 5.01 µM.

What about the EC50 [2] of the same molecule?
The EC50 was > 5.01 µM.

Which EC50 [1] does the source give for COc1cccc(CN2C(=O)[C@@H](N)CS(=O)(=O)c3ccc(C(=O)NC4CC(F)(F)C4)cc32)c1 [Example 149, (3R)-3-amino-N-(3,3-difluorocyclobutyl)-5-[(3-methoxyphenyl)methyl]-1,1,4-trioxo-2,3,4,5-tetrahydro-1λ^6,5-benzothiazepine-7-carboxamide] here?
Its EC50 is > 5.01 µM.

What about the EC50 [2] of the same molecule?
The EC50 was > 5.01 µM.

What does the source list for CN(C)c1cc2c(cc1C(=O)NCc1ccccc1)N(Cc1ccc(Cl)cc1)C(=O)[C@@H](N)CS2(=O)=O [Example 116, (3R)-3-amino-N-benzyl-5-[(4-chlorophenyl)methyl]-8-(dimethylamino)-1,1,4-trioxo-2,3,4,5-tetrahydro-1λ^6,5-benzothiazepine-7-carboxamide hydrochloride]?
EC50 [1]: 1.58 to 5.01 µM; EC50 [2]: > 5.01 µM

N[C@H]1CS(=O)(=O)c2ccc(C(=O)NC3CC4(COC4)C3)cc2N(Cc2ccc(Cl)cc2)C1=O [Example 181, (3R)-3-amino-5-[(4-chlorophenyl)methyl]-N-{2-oxaspiro[3.3]heptan-6-yl}-1,1,4-trioxo-2,3,4,5-tetrahydro-1λ^6,5-benzothiazepine-7-carboxamide] was tested. Which EC50 [1] did it give?
Its EC50 is > 5.01 µM.

And the EC50 [2]?
The EC50 was > 5.01 µM.

How did the EC50 [1] turn out when C#CCCCNC(=O)c1cc2c(cc1F)S(=O)(=O)C[C@H](N)C(=O)N2Cc1ccc(Cl)cc1 [Example 174, (3R)-3-amino-5-[(4-chlorophenyl)methyl]-8-fluoro-1,1,4-trioxo-N-(pent-4-yn-1-yl)-2,3,4,5-tetrahydro-1λ^6,5-benzothiazepine-7-carboxamide] was run?
The EC50 was 1.58 to 5.01 µM.

What about the EC50 [2] of the same molecule?
Its EC50 is 1.58 to 5.01 µM.

Which results are given for Cc1nc(-c2ccc(CN3C(=O)[C@@H](N)CS(=O)(=O)c4ccc(C(=O)NC5CC5(F)F)cc43)cc2)no1 (stereo partly drawn) [Example 121, (3R)-3-amino-N-(2,2-difluorocyclopropyl)-5-{[4-(5-methyl-1,2,4-oxadiazol-3-yl)phenyl]methyl}-1,1,4-trioxo-2,3,4,5-tetrahydro-1λ^6,5-benzothiazepine-7-carboxamide hydrochloride]?
EC50 [1]: > 5.01 µM; EC50 [2]: > 5.01 µM

What does the source list for N#Cc1ccc(CN2C(=O)[C@@H](N)CS(=O)(=O)c3cc(F)c(C(=O)NCc4ccc(F)cc4)cc32)cc1 [Example 170, (3R)-3-amino-5-[(4-cyanophenyl)methyl]-8-fluoro-N-[(4-fluorophenyl)methyl]-1,1,4-trioxo-2,3,4,5-tetrahydro-1λ^6,5-benzothiazepine-7-carboxamide]?
EC50 [1]: < 1.58 µM; EC50 [2]: < 1.58 µM
